Target: T1, RIPK1 (receptor-interacting protein kinase 1) (Homo sapiens, UniProt Q13546)
T1 sequence (Q13546 1-671): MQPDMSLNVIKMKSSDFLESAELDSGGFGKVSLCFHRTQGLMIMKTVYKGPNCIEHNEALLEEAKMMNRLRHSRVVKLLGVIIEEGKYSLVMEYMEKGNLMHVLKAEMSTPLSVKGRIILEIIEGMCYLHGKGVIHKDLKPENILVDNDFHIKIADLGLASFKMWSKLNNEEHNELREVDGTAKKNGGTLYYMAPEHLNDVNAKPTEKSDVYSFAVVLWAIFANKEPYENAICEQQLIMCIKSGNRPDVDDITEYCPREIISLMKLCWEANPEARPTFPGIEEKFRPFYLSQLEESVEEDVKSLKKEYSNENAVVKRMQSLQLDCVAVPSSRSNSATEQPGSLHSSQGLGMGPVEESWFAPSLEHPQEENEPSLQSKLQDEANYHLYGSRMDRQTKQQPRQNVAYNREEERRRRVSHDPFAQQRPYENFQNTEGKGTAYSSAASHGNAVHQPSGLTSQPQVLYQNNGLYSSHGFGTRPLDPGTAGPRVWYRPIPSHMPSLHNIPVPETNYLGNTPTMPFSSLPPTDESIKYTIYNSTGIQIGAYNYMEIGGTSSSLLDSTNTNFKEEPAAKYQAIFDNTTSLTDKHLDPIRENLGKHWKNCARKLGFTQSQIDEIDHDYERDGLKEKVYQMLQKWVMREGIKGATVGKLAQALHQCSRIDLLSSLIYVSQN
Assay: TR-FRET saturation binding

`Nc1ncnc2c1c(-c1ccc3c(c1)CCN3C(=O)Cc1cccc(OC(F)(F)F)c1)cn2CCCNC(=O)CCc1ccc2n1[B-](F)(F)[N+]1=C(c3ccc[nH]3)C=CC1=C2` [T2-BDP-589, T2-BODIPY-589] was tested, and the Kd was 443 nM.

— publication PMC12315041 (ACS medicinal chemistry letters, 2025)
